Patent publication US12421253B2 (Mirati Therapeutics, Inc., priority 2020, dated 2025)

How the values were obtained:
KRas^G12R = biological target: T1, KRas^G12R (Homo sapiens, UniProt P01116, G12R); assay: KRas binding assay (TR-FRET displacement of Cy5 labelled tracer)
T1 construct: […]; biotin (biotinylated); purchased Accelegan Inc

KRas^G13D = KRas^G13D (Homo sapiens, UniProt P01116, G13D); assay: biochemical
KRas^G12D = biological target: T2, KRas^G12D (Homo sapiens, UniProt P01116, G12D); assay: KRas binding assay (TR-FRET displacement of Cy5 labelled tracer)
T2 construct: […]; biotin (biotinylated); purchased Accelegan Inc

KRas^G12V = biological target: T3, KRas^G12V (Homo sapiens, UniProt P01116, G12V); assay: as above
T3 construct: […]; biotin (biotinylated); purchased Accelegan Inc

KRas^Q61H = KRas^Q61H (Homo sapiens, UniProt P01116, Q61H); assay: biochemical
KRas^WT = biological target: T4, KRas^WT (Homo sapiens, UniProt P01116); assay: KRas binding assay (TR-FRET displacement of Cy5 labelled tracer)
T4 construct: […]; biotin (biotinylated); purchased Accelegan Inc

KRas^G12S = biological target: T5, KRas^G12S (Homo sapiens, UniProt P01116, G12S); assay: as above
T5 construct: […]; biotin (biotinylated); purchased Accelegan Inc

KRas^G12C = KRas^G12C (Homo sapiens, UniProt P01116, G12C); assay: biochemical
KRas^G12A = biological target: T6, KRas^G12A (Homo sapiens, UniProt P01116, G12A); assay: KRas binding assay (TR-FRET displacement of Cy5 labelled tracer)
T6 construct: […]; biotin (biotinylated); purchased Accelegan Inc
T6 sequence (P01116 1-169 isoform P01116-2 G12A): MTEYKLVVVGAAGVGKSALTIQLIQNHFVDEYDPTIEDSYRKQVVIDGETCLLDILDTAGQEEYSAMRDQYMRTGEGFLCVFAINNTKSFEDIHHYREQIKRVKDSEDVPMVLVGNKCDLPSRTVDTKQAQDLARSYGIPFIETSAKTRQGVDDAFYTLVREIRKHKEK

Chain of KRas^G12C (P01116 1-169 isoform P01116-2 G12C): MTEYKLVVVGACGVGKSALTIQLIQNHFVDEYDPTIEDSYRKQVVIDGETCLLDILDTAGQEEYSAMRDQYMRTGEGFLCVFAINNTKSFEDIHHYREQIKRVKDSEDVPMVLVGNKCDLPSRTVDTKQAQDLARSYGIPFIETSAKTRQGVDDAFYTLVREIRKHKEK
T4 sequence (P01116 1-169 isoform P01116-2): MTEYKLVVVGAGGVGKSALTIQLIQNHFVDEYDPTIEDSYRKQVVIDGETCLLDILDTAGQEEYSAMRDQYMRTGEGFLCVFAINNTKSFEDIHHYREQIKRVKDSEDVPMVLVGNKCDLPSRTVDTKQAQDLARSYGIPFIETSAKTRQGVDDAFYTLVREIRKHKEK
T5 sequence (P01116 1-169 isoform P01116-2 G12S): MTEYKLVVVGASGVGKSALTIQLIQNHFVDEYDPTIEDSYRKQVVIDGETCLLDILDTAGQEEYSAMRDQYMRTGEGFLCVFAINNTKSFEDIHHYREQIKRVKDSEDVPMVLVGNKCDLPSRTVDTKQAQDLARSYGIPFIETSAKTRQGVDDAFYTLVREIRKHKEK
Chain of KRas^Q61H (P01116 1-169 isoform P01116-2 Q61H): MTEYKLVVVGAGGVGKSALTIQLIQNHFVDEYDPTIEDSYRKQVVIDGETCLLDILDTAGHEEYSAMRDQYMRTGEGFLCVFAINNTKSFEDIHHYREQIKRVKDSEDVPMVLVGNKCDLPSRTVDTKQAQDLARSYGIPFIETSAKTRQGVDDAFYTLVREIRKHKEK
Chain of KRas^G13D (P01116 1-169 isoform P01116-2 G13D): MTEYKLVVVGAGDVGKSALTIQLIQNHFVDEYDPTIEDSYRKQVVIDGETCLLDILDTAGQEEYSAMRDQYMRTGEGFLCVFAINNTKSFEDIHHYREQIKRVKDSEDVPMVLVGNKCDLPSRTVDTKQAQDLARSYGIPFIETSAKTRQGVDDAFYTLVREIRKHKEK
T1 sequence (P01116 1-169 isoform P01116-2 G12R): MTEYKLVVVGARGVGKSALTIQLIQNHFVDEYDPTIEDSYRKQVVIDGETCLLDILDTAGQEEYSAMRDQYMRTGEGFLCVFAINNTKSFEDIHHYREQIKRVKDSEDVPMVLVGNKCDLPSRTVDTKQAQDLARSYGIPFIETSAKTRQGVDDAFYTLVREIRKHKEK
T2 sequence (P01116 1-169 isoform P01116-2 G12D): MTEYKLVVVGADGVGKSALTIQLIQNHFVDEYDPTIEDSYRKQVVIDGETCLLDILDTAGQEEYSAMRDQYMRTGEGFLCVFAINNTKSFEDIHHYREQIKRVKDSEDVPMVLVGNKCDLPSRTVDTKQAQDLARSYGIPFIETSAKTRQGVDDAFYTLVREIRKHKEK
T3 sequence (P01116 1-169 isoform P01116-2 G12V): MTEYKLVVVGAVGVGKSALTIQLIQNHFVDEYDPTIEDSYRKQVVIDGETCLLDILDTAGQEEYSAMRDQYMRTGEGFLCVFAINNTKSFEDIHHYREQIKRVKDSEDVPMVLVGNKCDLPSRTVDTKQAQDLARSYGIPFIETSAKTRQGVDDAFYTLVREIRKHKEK

Compound | IC50 (KRas^G12R) [nM] | IC50 (KRas^G13D) [nM] | IC50 (KRas^G12D) [nM] | IC50 (KRas^G12V) [nM] | IC50 (KRas^Q61H) [nM] | IC50 (KRas^WT) [nM] | IC50 (KRas^G12S) [nM] | IC50 (KRas^G12C) [nM] | IC50 (KRas^G12A) [nM]
CCc1cccc2cccc(N3CCc4c(nc(OCC56CCCN5CCC6)nc4NCc4ccc5nncn5c4)C3)c12 [Example 39, N-([1,2,4]triazolo[4,3-a]pyridin-6-ylmethyl)-7-(8-ethylnaphthalen-1-yl)-2-((hexahydro-1H-pyrrolizin-7a-yl)methoxy)-5,6,7,8-tetrahydropyrido[3,4-d]pyrimidin-4-amine] | 239 | 1530 | 7110 | 221 | 1640 | 1370 | 592 | 317 | 425
CCc1cccc2cccc(N3CCc4c(nc(OCC56CCCN5CCC6)nc4N4CC5CC(O)CC4C5)C3)c12 (stereo not drawn) [Example 41, 6-(7-(8-ethylnaphthalen-1-yl)-2-((hexahydro-1H-pyrrolizin-7a-yl)methoxy)-5,6,7,8-tetrahydropyrido[3,4-d]pyrimidin-4-yl)-6-azabicyclo[3.2.1]octan-3-ol] | 245 | 583 | 1300 | 206 | 685 | 543 | 255 | 520 | 452
CCc1cccc2cccc(N3CCc4c(nc(OCC56CCCN5CCC6)nc4N4CCC(c5[nH]ncc5N)C4)C3)c12 (stereo not drawn) [Example 46, 5-(1-(7-(8-ethylnaphthalen-1-yl)-2-((hexahydro-1H-pyrrolizin-7a-yl)methoxy)-5,6,7,8-tetrahydropyrido[3,4-d]pyrimidin-4-yl)pyrrolidin-3-yl)-1H-pyrazol-4-amine] | 277 | 2860 | 6750 | 232 | 2230 | 1820 | 611 | 401 | 448
CCc1cccc2cccc(N3CCc4c(nc(OCC56CCCN5CCC6)nc4N4CCOC(CC(N)=O)C4)C3)c12 (stereo not drawn) [Example 103, 2-(4-(7-(8-ethylnaphthalen-1-yl)-2-((tetrahydro-1H-pyrrolizin-7a(5H)-yl)methoxy)-5,6,7,8-tetrahydropyrido[3,4-d]pyrimidin-4-yl)morpholin-2-yl)acetamide] | 364 | 691 | 2580 | 1390 | 690 | 718 | 791 | 427 | 785
CCc1cccc2cccc(N3CCc4c(nc(OCC56CCCN5CCC6)nc4N4CCCCCCC4)C3)c12 [Example 54, 4-(azocan-1-yl)-7-(8-ethylnaphthalen-1-yl)-2-((hexahydro-1H-pyrrolizin-7a-yl)methoxy)-5,6,7,8-tetrahydropyrido[3,4-d]pyrimidine] | 663 | 1080 | 1460 | 707 | 1230 | 943 | 924 | 755 | 767
CCc1cccc2cccc(N3CCc4c(nc(OCC56CCCN5CCC6)nc4N4CCCC(O)CC4)C3)c12 (stereo not drawn) [Example 7, 1-(7-(8-ethylnaphthalen-1-yl)-2-((tetrahydro-1H-pyrrolizin-7a(5H)-yl)methoxy)-5,6,7,8-tetrahydropyrido[3,4-d]pyrimidin-4-yl)azepan-4-ol] | 50 | 143 | 121 | 68 | 173 | 143 | 107 | 89 | 92
CCc1cccc2cccc(N3CCc4c(nc(OCC56CCCN5CCC6)nc4N4Cc5ccnn5CC(O)C4)C3)c12 (stereo not drawn) [Example 50, 5-(7-(8-ethylnaphthalen-1-yl)-2-((hexahydro-1H-pyrrolizin-7a-yl)methoxy)-5,6,7,8-tetrahydropyrido[3,4-d]pyrimidin-4-yl)-5,6,7,8-tetrahydro-4H-pyrazolo[1,5-a][1,4]diazepin-7-ol] | 284 | 800 | 219 | 342 | 808 | 613 | 330 | 299 | 569
CCc1cccc2cccc(N3CCc4c(nc(OCC56CCCN5CCC6)nc4N4CCCn5nc(C)cc5C4)C3)c12 [Example 56, 7-(8-ethylnaphthalen-1-yl)-2-((hexahydro-1H-pyrrolizin-7a-yl)methoxy)-4-(2-methyl-7,8-dihydro-4H-pyrazolo[1,5-a][1,4]diazepin-5(6H)-yl)-5,6,7,8-tetrahydropyrido[3,4-d]pyrimidine] | 1810 | 5720 | 874 | 1620 | 5560 | 5120 | 2030 | 1650 | 3010

Second part, the compound after the results:

IC50 (KRas^G12R) [nM] | IC50 (KRas^G13D) [nM] | IC50 (KRas^G12D) [nM] | IC50 (KRas^G12V) [nM] | IC50 (KRas^Q61H) [nM] | IC50 (KRas^WT) [nM] | IC50 (KRas^G12S) [nM] | IC50 (KRas^G12C) [nM] | IC50 (KRas^G12A) [nM] | Compound
638 | 465 | 1450 | 406 | 528 | 369 | 535 | 487 | 423 | CCc1cccc2cccc(N3CCc4c(nc(OCC56CCCN5CCC6)nc4N4CCCC(CO)CC4)C3)c12 (stereo not drawn) [Example 107, (1-(7-(8-ethylnaphthalen-1-yl)-2-((tetrahydro-1H-pyrrolizin-7a(5H)-yl)methoxy)-5,6,7,8-tetrahydropyrido[3,4-d]pyrimidin-4-yl)azepan-4-yl)methanol]
788 | 412 | 726 | 566 | 491 | 400 | 551 | 639 | 595 | CCc1cccc2cccc(N3CCc4c(nc(OCC56CCCN5CCC6)nc4N4CCCC(O)(C(F)(F)F)C4)C3)c12 (stereo not drawn) [Example 110, 1-(7-(8-ethylnaphthalen-1-yl)-2-((tetrahydro-1H-pyrrolizin-7a(5H)-yl)methoxy)-5,6,7,8-tetrahydropyrido[3,4-d]pyrimidin-4-yl)-3-(trifluoromethyl)piperidin-3-ol]
9040 | 15500 | 6300 | 1950 | 19900 | 17300 | 10600 | 7020 | 24300 | CCc1cccc2cccc(N3CCc4c(nc(OCC56CCCN5CCC6)nc4NCc4nc5ncccc5o4)C3)c12 [Example 157, 7-(8-ethylnaphthalen-1-yl)-N-(oxazolo[4,5-b]pyridin-2-ylmethyl)-2-((tetrahydro-1H-pyrrolizin-7a(5H)-yl)methoxy)-5,6,7,8-tetrahydropyrido[3,4-d]pyrimidin-4-amine]
1640 | 1200 | 8520 | 1260 | 1610 | 1620 | 2490 | 2300 | 2950 | CCc1cccc2cccc(N3CCc4c(nc(OCC56CCCN5CCC6)nc4N4CC[C@H]5C(=O)NC[C@H]5C4)C3)c12 [Example 141, (3aS,7aR)-5-(7-(8-ethylnaphthalen-1-yl)-2-((tetrahydro-1H-pyrrolizin-7a(5H)-yl)methoxy)-5,6,7,8-tetrahydropyrido[3,4-d]pyrimidin-4-yl)octahydro-1H-pyrrolo[3,4-c]pyridin-1-one]
775 | 1450 | 3900 | 1640 | 1720 | 1430 | 1660 | 1320 | 1180 | CCc1cccc2cccc(N3CCc4c(nc(OCC56CCCN5CCC6)nc4N4CCCC(n5nccn5)C4)C3)c12 (stereo not drawn) [Example 132, 4-(3-(2H-1,2,3-triazol-2-yl)piperidin-1-yl)-7-(8-ethylnaphthalen-1-yl)-2-((tetrahydro-1H-pyrrolizin-7a(5H)-yl)methoxy)-5,6,7,8-tetrahydropyrido[3,4-d]pyrimidine]
